Experiment [1] deals with T1, ERRα ligand binding domain (ERRα-LBD) (Homo sapiens, UniProt P11474).
T1 construct: made in house; host or cells: E. coli
T1 sequence (P11474 193-421 limits assumed): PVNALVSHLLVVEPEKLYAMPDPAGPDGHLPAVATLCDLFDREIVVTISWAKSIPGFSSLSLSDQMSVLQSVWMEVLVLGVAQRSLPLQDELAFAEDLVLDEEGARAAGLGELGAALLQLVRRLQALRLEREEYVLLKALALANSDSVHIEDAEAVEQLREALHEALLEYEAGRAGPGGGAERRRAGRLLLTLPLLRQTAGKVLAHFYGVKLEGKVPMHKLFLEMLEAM
Put plainly: ERRα AlphaScreen Assay. The experiment is classed as biochemical. As to conditions: disruption of binding of ERRα-LBD protein to biotin-PGC1α-3 co-activator peptide; read-out: mean pIC50 (converted). In short, it runs like this: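 E. coli-expressed 6His-SUMO-ERRα-LBD (0.81 nM) incubated with compound and donor/acceptor beads 1 h, then 2 h with 15 nM biotin-PGC1α-3 peptide (aa 202–220); room temperature, Tris pH 7.5 buffer with TCEP, 1% DMSO, triplicates. Loss of co-activator binding read by AlphaScreen; four-parameter dose-response fit.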
In general terms: In Alpha technology, singlet oxygen from a donor bead excites a nearby acceptor bead.

Experiment [2] relates to B16F10 melanoma. In words: B16F10 Melanoma Syngeneic Mouse Model. The experiment is classed as in vivo. The note with it: 30 mpk p.o., q.d., B16F10 allograft in C57BL/6 mice. The procedure: Example inhibitor 80 was tested for its ability to inhibit tumor growth in a B16F10 melanoma syngeneic mouse model. Cell line and tumor model: B16F10 melanoma cell line derived allograft model in C57BL/6 mice.
Mouse B16F10 melanoma cells were sourced from American Type Culture Collection (ATCC), USA. Cells were grown in DMEM (Invitrogen, Catalogue No. 31600-034) supplemented with 10% FBS (Invitrogen, Catalogue No. 10438-026), and 1% penicillin streptomycin (Thermo Fisher Scientific, Catalogue No. 15140-122). To establish allografts, the cells were harvested by trypsinization when they reach around 70 to 80% confluence and 0.1 million B16F10 cells were suspended in 50 μl of serum free medium and mixed at 1:1 ratio with matrigel before implanting subcutaneously into the dorsal right flank of mice using a 1 mL BD syringe attached to a 24-gauge needle.
B16F10 tumor grafts were measured after 5 days of cell inoculation once they became palpable. […]
Tumor dimensions—length (I) and breadth (b)—were measured by caliper on the day of animal randomization based on tumor volume (Day 1) and thrice weekly thereafter until study termination. Tumor volumes were calculated using the formula b^2*I*0.52 where I=length, b=breadth (Dusan Djokovic et al., BMC Cancer, 2010, 10:641). Tumor growth inhibition was calculated after normalizing the tumor volume on a given day to that on Day 1. […]

Experiment [3] deals with T2, full length ERRα (Homo sapiens, UniProt P11474).
T2 construct: an over-expression construct coding full length ERRα; expressed in transfected cells; host or cells: SK-BR-3 cells, transient co-transfection of pLP2124 (pcDNA3.1/Hygro(+) background) and reporter pLP2175
T2 sequence (P11474 1-423): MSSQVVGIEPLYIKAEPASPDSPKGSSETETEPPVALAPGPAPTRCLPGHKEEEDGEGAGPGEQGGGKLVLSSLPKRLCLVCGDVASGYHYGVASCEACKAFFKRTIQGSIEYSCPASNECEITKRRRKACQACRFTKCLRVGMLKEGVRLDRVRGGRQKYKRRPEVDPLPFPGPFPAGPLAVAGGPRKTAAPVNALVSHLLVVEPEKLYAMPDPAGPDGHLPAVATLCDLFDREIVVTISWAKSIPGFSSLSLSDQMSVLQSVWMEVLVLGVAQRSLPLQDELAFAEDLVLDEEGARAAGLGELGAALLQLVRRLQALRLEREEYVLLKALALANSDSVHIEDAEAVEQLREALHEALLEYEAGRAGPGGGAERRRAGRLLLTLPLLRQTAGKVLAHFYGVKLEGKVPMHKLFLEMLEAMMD
Put plainly: Full Length ERRα Reporter Gene Assay. The experiment is classed as cell-based. As to conditions: SK-BR-3 cells, ERRα-RE luciferase reporter, overnight incubation; read-out: mean pIC50 (converted). The source says: A method was established to quantitatively screen the potency of compounds with inverse agonistic activity on the nuclear receptor ERRα of the human species. The assay allows intra-cellular screening of ERRα inverse agonists in SK-BR-3 cells using an over-expression construct coding full length ERRα and a reporter construct containing an ERRα Response Element (RE) and a luciferase gene for read out. The activity is expressed in logIC50 values and can be used to determine SAR of compound families or to de-select compounds.
In this assay, reporter cells are obtained by transient co-transfection of two constructs in SK-BR-3 cells using standard transfection techniques. The first construct contains a response element of the nuclear receptor ERRα (Plasmid pLP2175, Reporter construct ERRα-RE/luc2P, cloned variant of ERRα_v2_synthRE, Switchgear Genomics, Catalog Number S900089). This sequence drives the transcription of the luciferase reporter gene in response to binding of an ERRα protein encoded by the second construct (Plasmid pLP2124: full length ERRα expression construct using pcDNA3.1/Hygro(+) as background, Invitrogen Catalog Number V87020).
The day after transfection, cells were plated into 96 well plates, the test compound was added and the plates were incubated overnight. Subsequently, the firefly luciferase activity was quantified using luciferase detection reagent and luminescence readout.
Transfection is performed on pre-seeded SK-BR-3 cells in a T175 flask. One transfected T175 flask is sufficient for seeding 3 to 4 MW96 plates the next day, depending on the confluency of the transfected cells.
Two different media are used in this protocol for cell treatment: 1) Culture medium, i.e. McCoy's 5a with phenol red (BioWhittaker Supplier Number 12-688F), 10% FBS and 1× Penstrep.; and, 2) Assay medium, i.e. McCoy's 5a Medium phenol red free (HyClone Product Code SH30270.01) with 2% Charcoal Stripped FBS and 1× Penstrep. Compound dilutions are prepared in assay medium.
Cells are seeded at least 2 days in advance to allow the cells to adhere well to flask before transfection. Cells should be 50-80% confluent at the day of transfection.
SKBR3 cells were transfected with the transcriptional reporter construct pLP2175 and the ERRα expression construct pLP2124 (as described above).
68 μL of Lipofectamine LTX transfection reagent (Invitrogen Catalog Number 15338-100) was added dropwise to 8.9 ml Opti-MEM I Reduced Serum Medium (Gibco Catalog Number 51985-026) and incubated at room temperature for 5 to 20 minutes. 8.9 ml of this reagent mixture was added to 22 μg pLP2175+22 μg pLP2124 (ratio 1:1 and total volume 10 ml), and incubated at room temperature for 25 minutes.
10 minutes before adding the transfection mix to SKBR3 cells in a T175 flask, the culture medium was refreshed with 20 mL culture medium. Subsequently, the 10 mL DNA-Opti-MEM-Lipofectamine mixture was gently added to the cells, followed by overnight (16-24 hours) incubation at 37° C. and 5% CO2.
To harvest SKBR3 cells from a T175 flask, first the medium was removed. Subsequently, cells were washed with Phosphate Buffered Saline (PBS) (Lonza), after which the PBS was removed. To dissociate the cells, 2 ml of TrypLE Express (I nvitrogen) was added to the flask, followed by incubation at 37° C. for 5 minutes. The flask was tapped until cells were detached from the bottom. Cells were collected in 8 mL of culture medium (McCoy's 5a, 10% FBS, penstrep), to achieve a single cell suspension. After cell count, cells were spun down for 5 minutes at 300 g. Next cell pellets were re-suspended to 25000 cells/80 μl assay medium (McCoy's 5a phenol red free, 2% charcoal stripped FBS, penstrep).
For compound screening, the cells were harvested (as described above). 80 μL of cell suspension (25,000 cells) was plated per well into a white, flat bottom, tissue culture treated, 96 well screening plates (Greiner). […]
A general note: In a reporter assay the amount or activity of a reporter protein is the signal.

Results on five compounds are retold here after US20240150342A1, “ESTROGEN-RELATED RECEPTOR ALPHA MODULATORS” (LEAD PHARMA HOLDING B.V., priority 2019, published 2024).

Each structure is given as a SMILES string. Where only a bound is given, the exact number is not on record here.

For `COc1cc(C2CC(=O)Nc3n[nH]cc32)ccc1Oc1cc(C(F)(F)F)cc(C(F)(F)F)c1` (single isomer, unassigned; (-)) [Example 80, (−)-4-{4-[3,5-bis(trifluoromethyl)phenoxy]-3-methoxyphenyl}-2H,4H,5H,6H,7H-pyrazolo[3,4-b]pyridin-6-one], the IC50 in experiment [1] was ≤ 10 nM. Moreover, in experiment [2], the “Tumor Volume (mm^3) Day 13” value was determined as 684 ± 82 mm^3. Also, in experiment [2] (Day 13), the “Tumor Growth Inhibition (%)” value is 64%.
Consider `CCc1ccc(Oc2ccc(-c3cc(=O)[nH]c4n[nH]cc34)cc2OC)c(C(C)(C)C)c1` [Example 67, 4-[4-(2-tert-butyl-4-ethylphenoxy)-3-methoxyphenyl]-2H,6H,7H-pyrazolo[3,4-b]pyridin-6-one], for which the IC50 in experiment [1] was ≤ 10 nM; in experiment [3] it was ≤ 316 nM.
Consider `COc1ccc(Oc2ccc(-c3cc(=O)[nH]c4n[nH]cc34)cc2OC)c(C(C)(C)C)c1` [Example 68, 4-[4-(2-tert-butyl-4-methoxyphenoxy)-3-methoxyphenyl]-2H,6H,7H-pyrazolo[3,4-b]pyridin-6-one], for which the figures for the IC50 in experiment [1] and in experiment [3] were ≤ 10 nM and ≤ 316 nM, respectively.
Consider `COc1cc(-c2cc(=O)[nH]c3n[nH]cc23)ccc1Oc1ccc(C)cc1C(C)(C)C` [Example 69, 4-[4-(2-tert-butyl-4-methylphenoxy)-3-methoxyphenyl]-2H,6H,7H-pyrazolo[3,4-b]pyridin-6-one], for which the IC50 is ≤ 10 nM in experiment [1] and ≤ 316 nM in experiment [3].
For `COc1cc(-c2cc(=O)[nH]c3n[nH]cc23)ccc1Oc1ccc(Br)cc1C(C)(C)C` [Example 70, 4-[4-(4-bromo-2-tert-butylphenoxy)-3-methoxyphenyl]-2H,6H,7H-pyrazolo[3,4-b]pyridin-6-one], the IC50 in experiment [1] is ≤ 10 nM; in experiment [3], ≤ 316 nM.
